Data published in US9790217B2, “Pyridinyloxy- and phenyloxy-pyrazolyl compounds” (Hoffmann-La Roche Inc., priority 2014, dated 2017).

Experiments:
[1] = system: rat model of chronic kidney disease; details: rat CKD model, cited from earlier work; for plasma aldosterone: FAD286 4 weeks, spironolactone 4 and 8 weeks of treatment
[2] = system: rats with experimental heart failure; details: cited from earlier work
human CYP11B2 = human CYP11B2 (Homo sapiens (Human), UniProt P19099); assay: G-402 cellular enzyme assay, human CYP11B2 (aldosterone release, HTRF); format: cell-based; details: G-402 cells expressing human CYP11B2; 1 μM Deoxycorticosterone
Chain of human CYP11B2 (P19099 25-503): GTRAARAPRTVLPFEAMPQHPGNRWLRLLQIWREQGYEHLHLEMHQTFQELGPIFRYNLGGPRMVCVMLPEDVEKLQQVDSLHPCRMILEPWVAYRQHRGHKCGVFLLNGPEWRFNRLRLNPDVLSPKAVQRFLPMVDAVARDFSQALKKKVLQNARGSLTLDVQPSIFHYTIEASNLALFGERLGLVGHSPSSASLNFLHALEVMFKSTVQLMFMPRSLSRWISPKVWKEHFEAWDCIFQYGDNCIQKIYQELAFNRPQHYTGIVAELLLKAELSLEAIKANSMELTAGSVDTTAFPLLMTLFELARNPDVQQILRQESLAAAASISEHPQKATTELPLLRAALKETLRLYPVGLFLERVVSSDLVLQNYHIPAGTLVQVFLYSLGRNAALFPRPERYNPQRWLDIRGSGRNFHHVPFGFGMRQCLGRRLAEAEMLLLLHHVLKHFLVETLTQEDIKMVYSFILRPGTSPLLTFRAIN
Excerpt: (§1) Herein we identified the use of the G-402 cell line as a host cell to ectopically express (transiently or stably) enzymes of the CYP11 family. Specifically we developed stable G-402 cells expressing ectopically human CYP11B1, human CYP11B2, human CYP11A1, cynmolgus CYP11B1 or cynomolgus CYP11B2 enzyme activity. Importantly the identified cell line G-402 expresses co-factors (adrenodoxin and adrenodoxin reductase) important for the activity of the CYP11 family and no relevant enzyme activity of the CYP11 family (in comparison to H295R cells) was detected in these cells. Therefore the G-402 cell line is uniquely suited as a host cell for the ectopic expression of enzymes from the CYP11 family.
(§2) G-402 cells can be obtained from ATCC (CRL-1440) and were originally derived from a renal leiomyoblastoma.
(§3) The expression plasmids contains the ORF for either human/cyno CYP11B1 or CYP11B2 under the control of a suitable promoter (CMV-promoter) and a suitable resistance marker (neomycin). Using standard techniques the expression plasmid is transfected into G-402 cells and these cells are then selected for expressing the given resistance markers. Individual cell-clones are then selected and assessed for displaying the desired enzymatic activity using 11-Deoxycorticosterone (Cyp11B2) or 11-Deoxycortisol (Cyp11B1) as a substrate.
(§4) G-402 cells expressing CYP11 constructs were established as described above and maintained in McCoy's 5a Medium Modified, ATCC Catalog No. 30-2007 containing 10% FCS and 400 μg/ml G418 (Geneticin) at 37° C. under an atmosphere of 5% CO2/95% air. Cellular enzyme assays were performed in DMEM/F12 medium containing 2.5% charcoal treated FCS and appropriate concentration of substrate (0.3-10 uM 11-Deoxycorticosterone, 11-Deoxycortisol or Corticosterone). For assaying enzymatic activity, cells were plated onto 96 well plates and incubated for 16 h. An aliquot of the supernatant is then transferred and analyzed for the concentration of the expected product (Aldosterone for CYP11B2; Cortisol for CYP11B1). The concentrations of these steroids can be determined using HTRF assays from CisBio analyzing either Aldosterone or Cortisol.
(§5) Inhibition of the release of produced steroids can be used as a measure of the respective enzyme inhibition by test compounds added during the cellular enzyme assay. The dose dependent inhibition of enzymatic activity by a compound is calculated by means of plotting added inhibitor concentrations (x-axes) vs. measured steroid/product level (y-axes). The inhibition is then calculated by fitting the following 4-parameter sigmoidal function (Morgan-Mercer-Flodin (MMF) model) to the raw data points using the least squares method:
(§6) [formula] wherein, A is the maximum y value, B is the EC50 factor determined using XLFit, C is the minimum y value and D is the slope value.
(§7) EC50 values for compounds claimed herein were tested with the G402-based assay system described. Cyp11B2 enzyme activity was tested in presence of 1 μM Deoxycorticosterone and variable amounts of inhibitors; Cyp11B1 enzyme activity was tested in presence of 1 μM Deoxycortisol and variable amounts of inhibitors.

human CYP11B1 = human CYP11B1 (Homo sapiens (Human), UniProt P15538); assay: G-402 cellular enzyme assay, human CYP11B1 (cortisol release, HTRF); format: cell-based; details: G-402 cells expressing human CYP11B1; 1 μM Deoxycortisol
Chain of human CYP11B1 (P15538 25-503): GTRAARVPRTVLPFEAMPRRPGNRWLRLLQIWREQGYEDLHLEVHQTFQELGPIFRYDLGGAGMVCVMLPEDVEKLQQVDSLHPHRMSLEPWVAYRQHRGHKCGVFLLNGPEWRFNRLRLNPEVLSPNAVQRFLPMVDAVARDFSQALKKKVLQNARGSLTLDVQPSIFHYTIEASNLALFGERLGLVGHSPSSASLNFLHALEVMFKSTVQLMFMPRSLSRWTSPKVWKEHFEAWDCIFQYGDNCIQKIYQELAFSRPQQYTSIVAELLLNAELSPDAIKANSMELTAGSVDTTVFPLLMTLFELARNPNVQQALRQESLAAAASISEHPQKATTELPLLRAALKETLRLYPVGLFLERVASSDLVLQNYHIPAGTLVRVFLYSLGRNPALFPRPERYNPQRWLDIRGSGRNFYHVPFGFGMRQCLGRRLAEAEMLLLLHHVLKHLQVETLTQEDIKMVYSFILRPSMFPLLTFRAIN
Excerpt: as §1, §2, §3, §4, §5, §6, §7

[3] = system: patients with primary aldosteronism; details: cited from earlier work

Row | Compound | EC50 (human CYP11B2) [nM] | EC50 (human CYP11B1) [nM] | further results
1 | CC(=O)S[C@@H]1CC2=CC(=O)CC[C@]2(C)[C@H]2CC[C@@]3(C)[C@@H](CC[C@@]34CCC(=O)O4)[C@H]12 [spironolactone] |  |  | plasma aldosterone [1]: increased; angiotensin II and salt-stimulated PAI-1 mRNA expression in the aorta and the heart [1]: enhanced; cardiac and aortic medial hypertrophy [1]: attenuated; renal effects of angiotensin II and high salt (albuminuria, azotemia, renovascular hypertrophy, glomerular injury, PAI-1, osteopontin mRNA, tubulointerstitial fibrosis) [1]: prevented
2 | N#Cc1ccc(C2CCCc3cncn32)cc1 (centres unmarked) [FAD286] |  |  | plasma aldosterone [1]: reduced; cardiac and aortic medial hypertrophy [1]: attenuated; renal effects of angiotensin II and high salt (albuminuria, azotemia, renovascular hypertrophy, glomerular injury, PAI-1, osteopontin mRNA, tubulointerstitial fibrosis) [1]: prevented; blood pressure and cardiovascular function and structure [2]: improved; kidney function and morphology [2]: improve
3 | CC(=O)N1CCCC(c2[nH]ncc2Oc2ccc(C#N)cc2)C1 (racemic) [Example 62, (rac)-4-[[3-(1-Acetylpiperidin-3-yl)-1H-pyrazol-4-yl]oxy]benzonitrile] | 370 | 2280 | 
4 | N#Cc1ccc(Oc2cn[nH]c2-c2ccccc2Cl)cc1 [Example 25, 4-[[5-(2-Chlorophenyl)-1H-pyrazol-4-yl]oxy]benzonitrile] | 0.2 | 18.5 | 
5 | N#Cc1ccc(Oc2cn[nH]c2-c2cccc(OCc3cccnc3)c2)cc1 [Example 51, 4-[[3-[3-(Pyridin-3-ylmethoxy)phenyl]-1H-pyrazol-4-yl]oxy]benzonitrile] | 9.5 | 51.3 | 
6 | FC(F)(F)c1ccc(Oc2cn[nH]c2-c2ccccc2Cl)cc1 [Example 23, 5-(2-Chlorophenyl)-4-[4-(trifluoromethyl)phenoxy]-1H-pyrazole] | 26.8 | 723 | 
7 | N#Cc1ccc([C@H]2CCc3cncn32)c(F)c1 [LCI699] |  |  | blood pressure [3]: mildly decreased; hypokalemia [3]: corrected; circulating aldosterone levels ([3]; oral): significantly lower
8 | Fc1cccc(-c2[nH]ncc2Oc2ccc(Cl)cc2)c1F [Example 1, 4-(4-Chlorophenoxy)-5-(2,3-difluorophenyl)-1H-pyrazole] | 29.8 | 1030 | 
9 | CS(=O)(=O)c1ccc(-c2[nH]ncc2Oc2ccc(C#N)cc2)c(Cl)c1 [Example 43, 4-[[5-(2-Chloro-4-methylsulfonylphenyl)-1H-pyrazol-4-yl]oxy]benzonitrile] | 41.6 | 558 | 
10 | FC(F)(F)c1ccc(-c2[nH]ncc2Oc2ccc(Cl)cc2)cc1 [Example 14, 4-(4-Chlorophenoxy)-5-[4-(trifluoromethyl)phenyl]-1H-pyrazole] | 2030 | 2670 | 
11 | Fc1cc(Cl)ccc1-c1[nH]ncc1Oc1ccc(Cl)cc1 [Example 11, 5-(4-Chloro-2-fluorophenyl)-4-(4-chlorophenoxy)-1H-pyrazole] | 45.8 | 433 | 
12 | N#Cc1ccc(Oc2cn[nH]c2-c2cccc(C(=O)N3CC(CO)C3)c2)cc1 [Example 47, 4-[[3-[3-[3-(Hydroxymethyl)azetidine-1-carbonyl]phenyl]-1H-pyrazol-4-yl]oxy]benzonitrile] | 281 | 159 | 
13 | CCCCOc1cccc(-c2[nH]ncc2Oc2ccc(C#N)cc2)c1 [Example 59, 4-[[5-(3-Butoxyphenyl)-1H-pyrazol-4-yl]oxy]benzonitrile] | 10.9 | 102 | 
14 | N#Cc1ccc(Oc2cn[nH]c2-c2cccc(O)c2F)cc1 [Example 84, 4-[[3-(2-Fluoro-3-hydroxyphenyl)-1H-pyrazol-4-yl]oxy]benzonitrile] | 0.4 | 17.3 | 
15 | N#Cc1ccc(Oc2cn[nH]c2-c2cccc(COc3cccnc3)c2)cc1 [Example 70, 4-[[3-[3-(Pyridin-3-yloxymethyl)phenyl]-1H-pyrazol-4-yl]oxy]benzonitrile] | 10.6 | 38.3 | 
16 | N#Cc1ccc(Oc2cn[nH]c2-c2ccccc2Cl)c(F)c1 [Example 28, 4-[[5-(2-Chlorophenyl)-1H-pyrazol-4-yl]oxy]-3-fluorobenzonitrile] | 1.5 | 134 | 
17 | N#Cc1ccc(Oc2cn[nH]c2-c2ccccc2Cn2ccc(=O)cc2)cc1 [Example 83, 4-[[3-[2-[(4-Oxopyridin-1-yl)methyl]phenyl]-1H-pyrazol-4-yl]oxy]benzonitrile] | 321 | 2880 | 
18 | N#Cc1ccc(Oc2cn[nH]c2C2CCCN(C(=O)c3cccnc3)C2)cc1 (racemic) [Example 64, (rac)-4-[[3-[1-(Pyridine-3-carbonyl)piperidin-3-yl]-1H-pyrazol-4-yl]oxy]benzonitrile] | 405 | 8160 | 
19 | COc1ccc(Cl)cc1-c1[nH]ncc1Oc1ccc(Cl)cc1 [Example 10, 3-(5-Chloro-2-methoxyphenyl)-4-(4-chlorophenoxy)-1H-pyrazole] | 60.8 | 835 | 
20 | N#Cc1ccc(Oc2cn[nH]c2-c2ccccc2OCc2cccnc2)cc1 [Example 77, 4-[[3-[2-(Pyridin-3-ylmethoxy)phenyl]-1H-pyrazol-4-yl]oxy]benzonitrile] | 0.3 | 11.4 | 
21 | FC(F)Oc1ccccc1-c1[nH]ncc1Oc1ccc(Cl)cc1 [Example 8, 4-(4-Chlorophenoxy)-5-[2-(difluoromethoxy)phenyl]-1H-pyrazole] | 4 | 75.7 | 
22 | Cc1cccc(Oc2c[nH]nc2-c2ccc(Cl)cc2Cl)n1 [Example 22, 2-[[3-(2,4-Dichlorophenyl)-1H-pyrazol-4-yl]oxy]-6-methylpyridine] | 42.1 | 611 | 
